Results as given in US8686187B2, “Ethoxy diphenyl ethane derivatives, preparation processes and uses thereof” (Shanghai Ecust Biomedicine Co., Ltd., priority 2008, dated 2014).
pIC50: −log10 of the molar value. Read-outs that look alike come from different tables or passages of the source.

Assays:
[1] = test system: S180 sarcoma transplanted tumor; test: Tumor-inhibiting rate experiment, intravenous injection, S180 sarcoma transplanted tumor in mice; type: in vivo; conditions: for Tumor-inhibiting rate (%): d0-d12 seven times, tumor weight; for tumor volume observation in drug administered group: around the eighth day after drug administration
Experimental: After 1 week for adaptation, mice are subcutaneously inoculated with S180 sarcoma tissues and randomly grouped after the tumor grows as much as the area of 100 to 300 mm^3; every compound is used for 6 mice in drug administered group and for 12 mice in control group, the administration doses are as below: 25, 50 mg/kg of ECB1P, ECB1GN hydrochloride, ECB1SN hydrochloride and positive controls ECA4P, ECA4GN hydrochloride, as well as 50, 100 mg/kg of positive controls CB1GA hydrochloride, CB1P and CA4P, the administration is given intravenously on Day d0, d2, d4, d6, d8, d10 and d12, seven times in total, measurement of tumor volume, mice weighing and data recording are performed three times every week, the mice are executed on the fourtheenth day after inoculation, tumor tissues are weighed to calculate the tumor-inhibiting rate, tumor weight inhibiting rate %=(1−average tumor weight in treatment group/average tumor weight in control group)×100%.

[2] = test system: Kunming mice; test: Acute toxicity test of single mice intraperitoneal injection; type: in vivo; conditions: for LD50: 14 days observation
Experimental: Kunming mice (half-and-half male and female, 17 to 22 grams heavy) are randomly grouped according to weights thereof, and during the test, the mice are divided, based on the proportion of 0.9, into 10 dose groups with each including 10 mice and having the maximal dose of 1500 mg/kg, the tested drugs having the respective doses of 1500, 1350, 1215, 1093, 984, 885, 797, 717, 645 and 581 mg/kg are administered in a manner of single intraperitoneal injection, mice observation and death rate recording are respectively performed once 0.25 h, 0.5 h, 1 h, 2 h, 4 h and 24 h after the drug administration, afterwards, everyday mice observation and death rate recording are performed for 14 days, the mice that are not dead are executed on the fifteenth day and are subjected to pathological anatomy.

[3] = test system: Gastric cancer SGC-7901; test: Antitumor activity evaluation for in vitro cultured tumor cells (SRB); type: cell-based
[4] = test system: Liver cancer Bel-7402; test: as above; type: cell-based
[5] = test system: Human colorectal cancer cell HT-29; test: as above; type: cell-based; conditions: for times stronger than positive control CB1: colorectal cancer HT-29
[6] = test system: Human umbilical vein endothelial cell (HUVEC); test: Proliferation inhibition of human umbilical vein endothelial cells (SRB); type: cell-based
[7] = test system: Non-small cell lung cancer cell NCl-H292; test: Antitumor activity evaluation for in vitro cultured tumor cells (SRB); type: cell-based
[8] = NCl-H292, 48 hours, SRB, read-out: IC50
[9] = SGC-7901, 48 hours, SRB, read-out: IC50
[10] = Bel-7402, 48 hours, SRB, read-out: IC50
[11] = HT-29, 48 hours, SRB, read-out: IC50

## 3,4,5-trimethoxy-3′-glycylamino-4′-ethoxydiphenylethane [CB1GN hydrochloride]
[1]; 50 mg/kg intravenously
  Tumor-inhibiting rate (%): 26%

## 3,4,5-trimethoxy-3′-glycylamino-4′-ethoxydiphenylethane [ECB1GN hydrochloride]
[1]; 25 mg/kg intravenously
  Tumor-inhibiting rate (%): 40%
[1]
  tumor volume observation in drug administered group: tendency of tumor shrinkage
[2]
  toxicity compared with positive controls: toxicity lower than ethoxydiphenylethylene positive control compounds ECA4P and ECA4GN hydrochloride
  LD50: 1012 mg/kg

## 3,4,5-trimethoxy-4′-ethoxydiphenylethane-3′-o-disodium phosphate salt [ECB1P]
[1]; 25 mg/kg intravenously
  Tumor-inhibiting rate (%): 42%
[1]
  tumor volume observation in drug administered group: tendency of tumor shrinkage
[2]
  toxicity compared with positive controls: toxicity lower than ethoxydiphenylethylene positive control compounds ECA4P and ECA4GN hydrochloride
  LD50: 1056 mg/kg

## 3,4,5-trimethoxy-4′-methoxydiphenylethane3′-o-disodium phosphate salt [CB1P]
[1]; 50 mg/kg intravenously
  Tumor-inhibiting rate (%): 28%
[2]
  LD50: 1228 mg/kg

## COc1ccc(/C=C\c2cc(OC)c(OC)c(OC)c2)cc1O [CA4, (Z)-3,4,5-trimethoxy-3′-hydroxy-4′-methoxydiphenylethylene]
[3]; Homo sapiens, SGC-7901, 48 hours, SRB, read-out: IC50
  pIC50: 8.44
[4]; Homo sapiens, Bel-7402, 48 hours, SRB, read-out: IC50
  pIC50: 6.08
[5]; Homo sapiens, HT-29, 48 hours, SRB, read-out: IC50
  pIC50: 7.68
[6]; 48 hours, SRB, read-out: IC50
  pIC50: 8.32
[6]; Homo sapiens, 48 h, SRB, read-out: IC50
  pIC50: 8.11 to 8.32
[7]; [8]
  pIC50: 5.62

## COc1ccc(CCc2cc(OC)c(OC)c(OC)c2)cc1O [CB1, 3,4,5-trimethoxy-3′-hydroxy-4′-methoxydiphenylethane]
[3]; [9]
  pIC50: 8.38
[4]; [10]
  pIC50: 5.77
[5]; [11]
  pIC50: 7.46
[6]; 48 hours, SRB, read-out: IC50
  pIC50: 8.25
[7]; [8]
  pIC50: 5.55

## COc1ccc(CCc2cc(OC)c(OC)c(OC)c2)cc1N [CB1N, 3,4,5-trimethoxy-3′-amino-4′-methoxydiphenylethane]
[3]; [9]
  pIC50: 8.32
[4]; [10]
  pIC50: 5.60
[5]; [11]
  pIC50: 7.41
[6]; 48 hours, SRB, read-out: IC50
  pIC50: 8.11
[7]; [8]
  pIC50: 5.52

## CCOc1ccc(/C=C\c2cc(OC)c(OC)c(OC)c2)cc1O [ECA4, (Z)-3,4,5-trimethoxy-3′-hydroxy-4′-ethoxydiphenylethylene]
[3]; Homo sapiens, SGC-7901, 48 h
  pIC50: 9.60
[4]; Homo sapiens, Bel-7402, 48 h
  pIC50: 7.20
[5]; Homo sapiens, HT-29, 48 h
  pIC50: 9.55
[6]; Homo sapiens, 48 h
  pIC50: 9.10
[7]; 48 h
  pIC50: 6.80

## CCOc1ccc(/C=C\c2cc(OC)c(OC)c(OC)c2)cc1NC(=O)CN.Cl [ECA4GN hydrochloride, (Z)-3,4,5-trimethoxy-3′-glycylamino-4′-ethoxydiphenylethane]
[1]; 25 mg/kg intravenously
  Tumor-inhibiting rate (%): 39%
[1]; 50 mg/kg intravenously, listed as ECA4GN hydrochlonde
  Tumor-inhibiting rate (%): 64%
[1]
  tumor volume observation in drug administered group: tendency of tumor shrinkage
[2]
  LD50: 912 mg/kg

## CCOc1ccc(/C=C\c2cc(OC)c(OC)c(OC)c2)cc1N [ECA4N, (Z)-3,4,5-trimethoxy-3′-amino-4′-ethoxydiphenylethylene]
[3]; Homo sapiens, SGC-7901, 48 h
  pIC50: 9.72
[4]; Homo sapiens, Bel-7402, 48 h
  pIC50: 7.41
[5]; Homo sapiens, HT-29, 48 h
  pIC50: 9.82
[6]; Homo sapiens, 48 h
  pIC50: 9.12
[7]; 48 h
  pIC50: 7.00

## CCOc1ccc(/C=C\c2cc(OC)c(OC)c(OC)c2)cc1OP(=O)([O-])[O-].[Na+].[Na+] [ECA4P, (Z)-3,4,5-trimethoxy-4′-ethoxydiphenylethylene-3′-o-disodium phosphate salt]
[1]; 25 mg/kg intravenously
  Tumor-inhibiting rate (%): 43%
[1]
  tumor volume observation in drug administered group: tendency of tumor shrinkage
[2]
  LD50: 906 mg/kg

## CCOc1ccc(CCc2cc(OC)c(OC)c(OC)c2)cc1O [ECB1, 3,4,5-trimethoxy-3′-hydroxy-4′-ethoxydiphenylethane]
[3]; [9]
  pIC50: 9.55
[4]; [10]
  pIC50: 7.24
[5]; [11]
  pIC50: 9.47
[5]
  times stronger than positive control CB1: about 100 times
[6]; 48 hours, SRB, read-out: IC50
  pIC50: 9.12
[7]; [8]
  pIC50: 6.77

## CCOc1ccc(CCc2cc(OC)c(OC)c(OC)c2)cc1N [ECB1N, 3,4,5-trimethoxy-3′-amino-4′-ethoxydiphenylethane]
[3]; [9]
  pIC50: 9.82
[4]; [10]
  pIC50: 7.47
[5]; [11]
  pIC50: 9.74
[5]
  times stronger than positive control CB1: about 200 times
[6]; 48 hours, SRB, read-out: IC50
  pIC50: 9.17
[7]; [8]
  pIC50: 6.92

## CCOc1ccc(CCc2cc(OC)c(OC)c(OC)c2)cc1NC(=O)C(N)CO.Cl (centres unmarked) [ECB1SN hydrochloride, 3,4,5-trimethoxy-3′-serylamino-4′-ethoxydiphenylethane]
[1]; 25 mg/kg intravenously
  Tumor-inhibiting rate (%): 45%
[1]
  tumor volume observation in drug administered group: tendency of tumor shrinkage
[2]
  toxicity compared with positive controls: toxicity lower than ethoxydiphenylethylene positive control compounds ECA4P and ECA4GN hydrochloride
  LD50: 1185 mg/kg

## (Z)-3,4,5-trimethoxy-4′-methoxydiphenylethylene-3′-o-disodium phosphate salt [CA4P]
[1]; 50 mg/kg intravenously
  Tumor-inhibiting rate (%): 28%
[2]
  LD50: 1276 mg/kg
